Patent US10875898B2, “Bioactive protein, use thereof and method for its production” (Koppert B.V., priority 2014, dated 2020)

Assays:
[1] = tested on: Lotus japonicus; test: Rhizobium lotii on Lotus japonicus in vitro system, plant growth and nodule density; assay type: in vivo; conditions: HYTLO1 0.07 μM, 6PP 0.002 μM, 4 weeks after seeding; for plant growth promotion effect of Rhizobia on Lotus japonicus: HA 0.001 μM in MS media; for nodule formation (number of nodules per cm of root): HA 0.001 μM, with R. loti
Procedure: Wt+Rhz=treatment with R. loti, Wt-Rhz without R. loti. (D) Growth measured after 4 weeks, in the absence (cont) or presence of Rhizoba R. loti ((+) Rhiz). The purified molecules were added to the sterile MS media and poured into Petri dishes. Data were recorded 4 weeks after seeding of L. japonicus.
FIG. 18. […] (HYT=HYTLO1 at 0.07 μM, 6PP at 0.002 μM, HA=Harzianic Acid at 0.001 μM). Wt=control with R. loti without metabolites. The purified molecules were added to the sterile MS media and poured into Petri dishes. Average number of nodules per cm of root are indicated. Data were recorded 4 weeks after seeding of L. japonicus.
In order to test the effect of HYTLO1, as well as of the secondary metabolites HA and 6PP on the growth promotion activity of Rhizobia, such as Rhizobium sp., on legumimosae plants, we used a standard Rhizobium lotii on Lotus japonicus in vitro system (Barbulova et al., 2005, Functional Plant Biology, 32:529-536). Plant growth and nodule density on the roots were scored four weeks after seeding by comparing untreated controls and the various treatments.

[2] = tested on: cucumber; test: combined application of HYTLO1, HA and 6PP on cucumber seed germination and growth promotion; assay type: in vivo; parameters: Root length, increase % vs. Control / Plant fresh weight, increase % vs. Control / Plant dry weight, increase % vs. Control / plant height, increase % vs. Control: concentration or dose not given beside the values; conditions: for Plant dry weight / Root length (cm) / Plant fresh weight / plant height (cm): 30 days after seed coating; for Plant dry weight: SD +− 1.3 g; for Root length (cm): SD +− 2.1 cm; for Plant fresh weight: SD +− 2.5 g; for plant height (cm): drench 10^−7M 6PP and HA, 10^−8M HYTLO1, half or one third dose in combinations, SD +− 2.5 cm; for Seed germination (24 h): coated cucumber seeds on humid filter paper, SD +− 9%
Procedure: Tested metabolites include 6PP and Harzianic Acid, and experiments were performed on seed germination, stem or root elongation as well fresh/dry weight. The results shown in Table 1 were obtained by using cucumber seeds coated with the solutions of the tested compounds, that were then transferred in Petri dishes and left to germinate on filter humid paper. First seed germination was evaluated, then the germinated seedlings were transplanted into pots containing sterilised soil. Other two treatments with the purified molecules were performed at 10 days interval, by drenching the soil with the solutions at the final concentrations of 10^−7M for 6PP and HA, and 10^−8M for HYTLO1. In two-compounds application, half dose of each molecule was used. In three-compound applications, one third of the dose of each molecules was used. Each treatments consisted of 8 plants. Results were collected 30 days after seed coating. Control was produced by adding water instead of the molecule solutions. The effect of the minimal amounts of solvents eventually contained in HA and 6PP solution was preliminary tested, with no differences observed in comparison to water control. The results shown in Table 1 that all of the three tested molecules have a significant beneficial effect on seed germination and plant growth, and that they can be synergistically combined for enhanced effectiveness.

SMILES | plant growth promotion effect of Rhizobia on Lotus japonicus [1] | nodule formation (number of nodules per cm of root) [1] | Plant dry weight [2] [g] | Root length (cm) [2] [cm] | Plant fresh weight [2] [g] | plant height (cm) [2] [cm] | Seed germination (24 h) [2] [%] | Seed germination (24 h), increase % vs. Control ([2]; vs water control) | Plant dry weight, increase % vs. Control ([2]; vs water control, 30 days) [%] | Plant fresh weight, increase % vs. Control ([2]; vs water control, 30 days) [%] | Root length, increase % vs. Control ([2]; vs water control, 30 days) [%] | plant height, increase % vs. Control ([2]; vs water control, 30 days) [%]
CCC/C=C/C=C/C(O)=C1/C(=O)C(CC(O)(C(=O)O)C(C)C)N(C)C1=O (centres unmarked) [HA, Harzianic acid] | Enhancement of the effect of Rhizobium lotii | Enhancement of nodule formation | 7.6 | 13.6 | 23.36 | 27.4 | 75 | +25% | 46.1 | 30.1 | 10.7 | 8.4
CCCCCc1cccc(=O)o1 [6PP, 6-Pentyl-α-pyrone] | Enhancement of the effect of Rhizobium lotii | Enhancement of nodule formation | 7.1 | 17.6 | 22.04 | 21.8 | 75 | +25% | 42.3 | 25.9 | 31.1 | –
